# Laboratory results taken from patent publication EP4635500A1, “THERAPEUTIC AGENT FOR BACTERIAL INFECTION” (Sumitomo Pharma Co., Ltd., priority 2022, dated 2024).
# Read-outs that look alike come from different tables or passages of the source.
# Experiments:
# A. baumannii = experiment: MIC, broth microdilution, CDC/FDA Antibiotic Resistance Isolate Bank (Example 7, Tables 9, 13, 14); type: cell-based, Acinetobacter baumannii; settings: for MIC: read-out: MIC
# Enterobacterales = experiment: MIC, broth microdilution, CDC/FDA Antibiotic Resistance Isolate Bank (Example 7, Tables 8, 11, 12); type: cell-based; settings: for MIC: read-out: MIC
# [1] = MIC distribution, metallo-β-lactamase-producing A. baumannii, inhibitor µg/mL in parentheses
smiles,measurement,setting,value
"O=C(O)c1cn(C2CC2)c2cc(N3CCNCC3)c(F)cc2c1=O [Ciprofloxacin, ciprofloxacin]",MIC,"A. baumannii; Acinetobacter baumannii, A. baumannii KUB No. 5567, AR Bank #70, OXA-58, OXA-100",8 µg/mL
same,MIC,"A. baumannii; Acinetobacter baumannii, A. baumannii KUB No. 5575, AR Bank #78, OXA-71",> 64 µg/mL
same,MIC,"A. baumannii; Acinetobacter baumannii, A. baumannii KUB No. 5598, AR Bank #101, OXA-24, OXA-65",> 64 µg/mL
same,MIC,"A. baumannii; Acinetobacter baumannii, A. baumannii KUB No. 5706, AR Bank #273, OXA-23, OXA-66",> 64 µg/mL
same,MIC,"A. baumannii; Acinetobacter baumannii, A. baumannii KUB No. 5707, AR Bank #274, OXA-66, OXA-72",> 64 µg/mL
same,MIC,"A. baumannii; Acinetobacter baumannii, A. baumannii KUB No. 5710, AR Bank #277, OXA-24, OXA-65",> 64 µg/mL
same,MIC,"A. baumannii; Acinetobacter baumannii, A. baumannii KUB No. 5713, AR Bank #280, OXA-66",> 64 µg/mL
same,MIC,"A. baumannii; Acinetobacter baumannii, A. baumannii KUB No. 5718, AR Bank #285, OXA-24, OXA-65",> 64 µg/mL
same,MIC,"A. baumannii; Acinetobacter baumannii, KUB No. 5721, AR Bank #288",> 64 µg/mL
same,MIC,"A. baumannii; Acinetobacter baumannii, KUB No. 5722, AR Bank #259",> 64 µg/mL
same,MIC,"A. baumannii; Acinetobacter baumannii, KUB No. 5724, AR Bank #291",> 64 µg/mL
same,MIC,"A. baumannii; Acinetobacter baumannii, KUB No. 5727, AR Bank #294",> 64 µg/mL
same,MIC,"A. baumannii; Acinetobacter baumannii, KUB No. 5728, AR Bank #295",> 64 µg/mL
same,MIC,"A. baumannii; Acinetobacter baumannii, KUB No. 5729, AR Bank #296",> 64 µg/mL
same,MIC,"A. baumannii; Acinetobacter baumannii, KUB No. 5730, AR Bank #297",> 64 µg/mL
same,MIC,"A. baumannii; Acinetobacter baumannii, KUB No. 5732, AR Bank #299",> 64 µg/mL
same,MIC,"A. baumannii; Acinetobacter baumannii, KUB No. 5733, AR Bank #300",> 64 µg/mL
same,MIC,"A. baumannii; Acinetobacter baumannii, KUB No. 5734, AR Bank #301",> 64 µg/mL
same,MIC,"A. baumannii; Acinetobacter baumannii, KUB No. 5735, AR Bank #302",> 64 µg/mL
same,MIC,"A. baumannii; Acinetobacter baumannii, KUB No. 5737, AR Bank #304",> 64 µg/mL
same,MIC,"A. baumannii; Acinetobacter baumannii, KUB No. 5738, AR Bank #305",> 64 µg/mL
same,MIC,"A. baumannii; Acinetobacter baumannii, KUB No. 5739, AR Bank #306",> 64 µg/mL
same,MIC,"A. baumannii; Acinetobacter baumannii, KUB No. 5741, AR Bank #308",> 64 µg/mL
same,MIC,"A. baumannii; Acinetobacter baumannii, KUB No. 5742, AR Bank #309",> 64 µg/mL
same,MIC,"A. baumannii; Acinetobacter baumannii, KUB No. 5743, AR Bank #310",> 64 µg/mL
same,MIC,"A. baumannii; Acinetobacter baumannii, KUB No. 5745, AR Bank #312",8 µg/mL
same,MIC80,"A. baumannii; Acinetobacter baumannii, 55 isolates of A. baumannii, read-out: MIC80",> 64 µg/mL
same,MIC90,"A. baumannii; Acinetobacter baumannii, 55 isolates of A. baumannii, read-out: MIC90",> 64 µg/mL
same,Number of isolates at MIC 16 µg/mL,A. baumannii; [1],1
same,Number of isolates at MIC 32 µg/mL,A. baumannii; [1],1
same,Number of isolates at MIC >32 µg/mL,A. baumannii; [1],1
same,Number of isolates at MIC >64 µg/mL,A. baumannii; [1],1
same,MIC80,"Enterobacterales; 154 strains of Enterobacterales, read-out: MIC80",> 64 µg/mL
same,MIC90,"Enterobacterales; 154 strains of Enterobacterales, read-out: MIC90",> 64 µg/mL
same,MIC,"Enterobacterales; Citrobacter freundii, KUB No. 5654, AR Bank # 157",> 64 µg/mL
same,MIC,"Enterobacterales; Escherichia coli, Escherichia coli KUB No. 5783, AR Bank #437",> 64 µg/mL
same,MIC,"Enterobacterales; Escherichia coli, Escherichia coli KUB No. 5794, AR Bank #450",0.06 µg/mL
same,MIC,"Enterobacterales; Escherichia coli, Escherichia coli KUB No. 5796, AR Bank #452",> 64 µg/mL
same,MIC,"Enterobacterales; Escherichia coli, KUB No. 5552, AR Bank# 55",> 64 µg/mL
same,MIC,"Enterobacterales; Escherichia coli, KUB No. 5558, AR Bank # 61",≤ 0.03 µg/mL
same,MIC,"Enterobacterales; Escherichia coli, KUB No. 5564, AR Bank # 67",> 64 µg/mL
same,MIC,"Enterobacterales; Escherichia coli, KUB No. 5566, AR Bank # 69",0.06 µg/mL
same,MIC,"Enterobacterales; Escherichia coli, KUB No. 5574, AR Bank # 77",≤ 0.03 µg/mL
same,MIC,"Enterobacterales; Escherichia coli, KUB No. 5582, AR Bank # 85",> 64 µg/mL
same,MIC,"Enterobacterales; Escherichia coli, KUB No. 5586, AR Bank # 89",≤ 0.03 µg/mL
same,MIC,"Enterobacterales; Escherichia coli, KUB No. 5616, AR Bank # 119",> 64 µg/mL
same,MIC,"Enterobacterales; Escherichia coli, KUB No. 5634, AR Bank # 137",> 64 µg/mL
same,MIC,"Enterobacterales; Escherichia coli, KUB No. 5764, AR Bank # 368",≤ 0.03 µg/mL
same,MIC,"Enterobacterales; Escherichia coli, KUB No. 5765, AR Bank # 369",0.06 µg/mL
same,MIC,"Enterobacterales; Escherichia coli, KUB No. 5766, AR Bank # 370",> 64 µg/mL
same,MIC,"Enterobacterales; Escherichia coli, KUB No. 5768, AR Bank # 372",> 64 µg/mL
same,MIC,"Enterobacterales; Escherichia coli, KUB No. 5770, AR Bank # 374",> 64 µg/mL
same,MIC,"Enterobacterales; Escherichia, KUB No. 57, AR Bank # 436 (row cut off)",> 64 µg/mL
same,MIC,"Enterobacterales; Klebsiella aerogenes, Enterobacter aerogenes, KUB No. 5559, AR Bank # 62",2 µg/mL
same,MIC,"Enterobacterales; Klebsiella aerogenes, Enterobacter aerogenes, KUB No. 5571, AR Bank # 74",0.06 µg/mL
same,MIC,"Enterobacterales; Klebsiella aerogenes, Enterobacter aerogenes, KUB No. 5658, AR Bank # 161",0.06 µg/mL
same,MIC,"Enterobacterales; Klebsiella aerogenes, Enterobacter aerogenes, KUB No. 5777, AR Bank # 431",1 µg/mL
same,MIC,"Enterobacterales; Klebsiella oxytoca, KUB No. 5644, AR Bank # 147",≤ 0.03 µg/mL
same,MIC,"Enterobacterales; Klebsiella oxytoca, KUB No. 5771, AR Bank # 375",≤ 0.03 µg/mL
same,MIC,"Enterobacterales; Klebsiella ozaenae, KUB No. 5548, AR Bank# 51",> 64 µg/mL
same,MIC,"Enterobacterales; Klebsiella pnemnonine, KUB No. 5758, AR Bank # 362",> 64 µg/mL
same,MIC,"Enterobacterales; Klebsiella pneumoniae, KUB No. 55, AR Bank# 47",> 64 µg/mL
same,MIC,"Enterobacterales; Klebsiella pneumoniae, KUB No. 5531, AR Bank# 34",0.5 µg/mL
same,MIC,"Enterobacterales; Klebsiella pneumoniae, KUB No. 5537, AR Bank# 40",> 64 µg/mL
same,MIC,"Enterobacterales; Klebsiella pneumoniae, KUB No. 5540, AR Bank# 43",4 µg/mL
same,MIC,"Enterobacterales; Klebsiella pneumoniae, KUB No. 5541, AR Bank# 44",> 64 µg/mL
same,MIC,"Enterobacterales; Klebsiella pneumoniae, KUB No. 5543, AR Bank# 46",> 64 µg/mL
same,MIC,"Enterobacterales; Klebsiella pneumoniae, KUB No. 5546, AR Bank# 49",> 64 µg/mL
same,MIC,"Enterobacterales; Klebsiella pneumoniae, KUB No. 5563, AR Bank # 66",> 64 µg/mL
same,MIC,"Enterobacterales; Klebsiella pneumoniae, KUB No. 5565, AR Bank # 68",> 64 µg/mL
same,MIC,"Enterobacterales; Klebsiella pneumoniae, KUB No. 5572, AR Bank # 75",> 64 µg/mL
same,MIC,"Enterobacterales; Klebsiella pneumoniae, KUB No. 5573, AR Bank # 76",0.5 µg/mL
same,MIC,"Enterobacterales; Klebsiella pneumoniae, KUB No. 5576, AR Bank # 79",> 64 µg/mL
same,MIC,"Enterobacterales; Klebsiella pneumoniae, KUB No. 5584, AR Bank # 87",> 64 µg/mL
same,MIC,"Enterobacterales; Klebsiella pneumoniae, KUB No. 5594, AR Bank # 97",> 64 µg/mL
same,MIC,"Enterobacterales; Klebsiella pneumoniae, KUB No. 5595, AR Bank # 98",> 64 µg/mL
same,MIC,"Enterobacterales; Klebsiella pneumoniae, KUB No. 5603, AR Bank # 106",> 64 µg/mL
same,MIC,"Enterobacterales; Klebsiella pneumoniae, KUB No. 5604, AR Bank # 107",> 64 µg/mL
same,MIC,"Enterobacterales; Klebsiella pneumoniae, KUB No. 5606, AR Bank # 109",> 64 µg/mL
same,MIC,"Enterobacterales; Klebsiella pneumoniae, KUB No. 5614, AR Bank # 117",8 µg/mL
same,MIC,"Enterobacterales; Klebsiella pneumoniae, KUB No. 5617, AR Bank # 120",> 64 µg/mL
same,MIC,"Enterobacterales; Klebsiella pneumoniae, KUB No. 5622, AR Bank # 125",> 64 µg/mL
same,MIC,"Enterobacterales; Klebsiella pneumoniae, KUB No. 5626, AR Bank # 129",> 64 µg/mL
same,MIC,"Enterobacterales; Klebsiella pneumoniae, KUB No. 5635, AR Bank # 138",> 64 µg/mL
same,MIC,"Enterobacterales; Klebsiella pneumoniae, KUB No. 5637, AR Bank # 140",> 64 µg/mL
same,MIC,"Enterobacterales; Klebsiella pneumoniae, KUB No. 5638, AR Bank # 141",> 64 µg/mL
same,MIC,"Enterobacterales; Klebsiella pneumoniae, KUB No. 5643, AR Bank # 146",> 64 µg/mL
same,MIC,"Enterobacterales; Klebsiella pneumoniae, KUB No. 5645, AR Bank # 148",> 64 µg/mL
same,MIC,"Enterobacterales; Klebsiella pneumoniae, KUB No. 5650, AR Bank # 153",> 64 µg/mL
same,MIC,"Enterobacterales; Klebsiella pneumoniae, KUB No. 5657, AR Bank # 160",0.06 µg/mL
same,MIC,"Enterobacterales; Klebsiella pneumoniae, KUB No. 5757, AR Bank # 361",> 64 µg/mL
same,MIC,"Enterobacterales; Klebsiella pneumoniae, KUB No. 5760, AR Bank # 364",> 64 µg/mL
same,MIC,"Enterobacterales; Klebsiella pneumoniae, Klebsiella pneumoniae KUB No. 5784, AR Bank #438",> 64 µg/mL
same,MIC,"Enterobacterales; Klebsiella pneumoniae, Klebsiella pneumoniae KUB No. 5797, AR Bank #453",> 64 µg/mL
same,MIC,"Enterobacterales; Klebsiella pneumoniae, Klebsiella pneumoniae KUB No. 5809, AR Bank #504",2 µg/mL
same,MIC,"Enterobacterales; Klebsiella pneumoniae, Klebsiella pneumoniae KUB No. 5810, AR Bank #505",0.5 µg/mL
same,MIC,"Enterobacterales; Klebsiella pneumoniae, Klebsiella pneumoniae KUB No. 5811, AR Bank #506",2 µg/mL
same,MIC,"Enterobacterales; Klebsiella pneumoniae, Klebsiella pneumoniae KUB No. 5812, AR Bank #507",> 64 µg/mL
same,MIC,"Enterobacterales; Klebsiella pneumoniae, Klebsiella pneumoniae KUB No. 5828, AR Bank #523",4 µg/mL
same,MIC,"Enterobacterales; Klebsiella pneumoniae, Klebsiella pneumoniae KUB No. 5830, AR Bank #525",> 64 µg/mL
same,MIC,"Enterobacterales; Kluyvera ascorbata, KUB No. 5641, AR Bank # 144",1 µg/mL
same,MIC,"Enterobacterales; Morganella morganii, KUB No. 5554, AR Bank# 57",> 64 µg/mL
same,MIC,"Enterobacterales; Morganella morganii, Morganella morganii KUB No. 5824, AR Bank #519",0.06 µg/mL
same,MIC,"Enterobacterales; Proteus mirabilis, KUB No. 5652, AR Bank # 155",> 64 µg/mL
same,MIC,"Enterobacterales; Proteus mirabilis, KUB No. 5653, AR Bank # 156",4 µg/mL
same,MIC,"Enterobacterales; Proteus mirabilis, KUB No. 5656, AR Bank # 159",1 µg/mL
same,MIC,"Enterobacterales; Proteus mirabilis, KUB No. 5775, AR Bank # 379",4 µg/mL
same,MIC,"Enterobacterales; Providencia rettgeri, KUB No. 5579, AR Bank # 82",0.06 µg/mL
same,MIC,"Enterobacterales; Serratia marcescens, KUB No. 5588, AR Bank # 91",0.06 µg/mL
same,MIC,"Enterobacterales; Serratia marcescens, KUB No. 5596, AR Bank # 99",0.06 µg/mL
same,MIC,"Enterobacterales; Serratia marcescens, KUB No. 5618, AR Bank # 121",0.06 µg/mL
same,MIC,"Enterobacterales; Serratia marcescens, KUB No. 5619, AR Bank # 122",0.06 µg/mL
same,MIC,"Enterobacterales; Serratia marcescens, KUB No. 5620, AR Bank # 123",0.06 µg/mL
same,MIC,"Enterobacterales; Serratia marcescens, KUB No. 5621, AR Bank # 124",0.06 µg/mL
same,MIC,"Enterobacterales; Serratia marcescens, KUB No. 5627, AR Bank # 130",0.06 µg/mL
same,MIC,"Enterobacterales; Serratia marcescens, KUB No. 5628, AR Bank # 131",0.06 µg/mL
same,MIC,"Enterobacterales; Serratia marcescens, Serratia marcescens KUB No. 5822, AR Bank #517",1 µg/mL
same,MIC,"Enterobacterales; Serratia marcescens, Serratia marcescens KUB No. 5825, AR Bank #520",1 µg/mL
